Data on five compounds can be found in paper PMC12316308, “Interactions of substrates and phosphinyl containing inhibitors with bacterial and human zinc proteases” (PLOS One, 2025).

The target of test [1] is T1, human MT1-MMP/MMP-14 (catalytic domain) (Homo sapiens, UniProt P50281).
T1 construct: human MT1-MMP/MMP-14 (catalytic domain); purchased Calbiochem (San Diego, CA, USA)
Put plainly: Enzyme inhibition kinetics, fluorogenic substrate ES001. In kind it is biochemical. The note with it: for inhibitory effect on enzymatic activity: in words; for Ki: read-out: Ki ± s.d. (converted). As for the experimental part: (§1) Determination of reaction velocities. The substrate ES001 was used for APMA activated MMP-9 (MMP-9(A)), Mag-Trypsin activated MMP-9 (MMP-9(MT)) and MMP-14, while the substrate ES005 was used for ALN, PLN and TLN. The reaction velocities/initial rates (v) were determined at 37°C, at an excitation wavelength of 320 nm and an emission wavelength of 405 nm with a slit width of 10 nm using either a Perkin Elmer LS 50 Luminescence spectrometer and the FL WinLab Software Package (Perkin Elmer) or a Clario Star micro plate reader (CLARIOstar® BMG LABTECH).
(§2) The phosphinic compounds were dissolved in 100% DMSO to a final concentration of 10 mM. In all assays, a fixed substrate concentration of 4.0 µM was used in a total volume of 100 µL 0.1 M Hepes pH 7.5, 10 mM CaCl2, 0.005% Brij-35 and 1.0% DMSO. Fixed enzyme concentrations were as follows; 0.05 nM MMP-9(A), 0.05 nM MMP-9(MT), 1.0 nM MMP-14, 1.4 nM ALN, 0.5 nM PLN and 0.21 nM TLN. Time dependent inhibitory experiments, with and without 100 μM of phosphinic compounds, were performed as follows: Compounds were either pre-incubated with proteases for 15 and 30 minutes at room temperature before initiating the enzymatic reaction by adding the substrate, or not pre-incubated, meaning the reaction was initiated by adding the protease to the mixture of substrate and compound. Control tests without the compound present were performed under the same conditions. Reactions were monitored for 30 minutes at 37°C.
(§3) Determination of IC50 and Ki values. […] A fixed substrate concentration and the same enzyme and buffer conditions as described above were used. Enzymes, with or without inhibitors, were either pre-incubated for 30 minutes at room temperature or not pre-incubated, and initial rate assays were performed as described above. Assays were performed using a Clario Star microplate reader. The IC50 values with corresponding s.d. were calculated with GraphPad Prism 5 using equation 1 or 2, depending on the concentration range of the phosphinic compounds.
(§4) Equation 3 describe the relationship between IC50 and Ki values for substrate competitive inhibitors, considering the fixed substrate concentration and the enzyme’s Km value for the substrate: […]

For test [2], the target named is T2, APMA activated MMP-9 (MMP-9(A)) (Homo sapiens, UniProt P14780).
T2 construct: made in house; host or cells: Sf9 and High Five insect cells
Described as above. It counts as biochemical. The conditions noted are these: for inhibitory effect on enzymatic activity: 100 μM compound, in words; for Ki: read-out: Ki ± s.d. (converted). As for the experimental part:
(§5) The expression of recombinant full length proMMP-9 (rpMMP-9) in Sf9 and High Five insect cells and the purification were performed as previously described. The amount of proMMP-9 was estimated spectrophotometrically at 280 nm using ε280nm = […] [46] for the full length enzyme. Activation of the recombinant proMMP-9 was performed with APMA (auto-activation) and Mag-Trypsin as previously described, while the amount of active MMP-9 was determined by active site titration using galardin, also described previously.
as §1, §2, §3, §4

The target in test [3] is T3, Mag-Trypsin activated MMP-9 (MMP-9(MT)) (Homo sapiens, UniProt P14780).
T3 construct: made in house; host or cells: Sf9 and High Five insect cells
The test is described as above. It counts as biochemical. The conditions noted are these: for inhibitory effect on enzymatic activity: 100 μM compound, in words; for Ki: read-out: Ki ± s.d. (converted). As for the experimental part: as §5, §1, §2, §3, §4

The next test addresses T4, aureolysin (ALN) (Staphylococcus aureus, UniProt P81177).
T4 construct: purchased BioCentrum Ltd (Kraków, Poland)
Put plainly: Enzyme inhibition kinetics, fluorogenic substrate ES005. In kind it is biochemical. The note with it: for inhibitory effect on enzymatic activity: 100 μM compound, in words. As to the method:
as §1, §2, §3, §4

Another test concerns the target T5, pseudolysin (PLN, LasB) (Pseudomonas aeruginosa, UniProt P14756).
T5 construct: purchased Calbiochem (San Diego, CA, USA)
Described as above. In kind it is biochemical. The conditions noted are these: for inhibitory effect on enzymatic activity: 100 μM compound, in words. As for the experimental part: as §1, §2, §3, §4

Test [4] addresses T6, thermolysin (TLN) (Bacillus thermoproteolyticus, UniProt P00800).
T6 construct: purchased Calbiochem (San Diego, CA, USA)
The description is as above. In kind it is biochemical. The note with it: for inhibitory effect on enzymatic activity: 100 μM compound, in words; for Ki: read-out: Ki ± s.d. As to the method: as §1, §2, §3, §4

A further test has as its target T7, MMP-9(A) (Homo sapiens, UniProt P14780).
T7 construct: made in house; host or cells: Sf9 and High Five insect cells
Also noted: method as in PMID 33757387. The note with it: 1% DMSO; cited from earlier work.

The target of a further test is T8, MMP-14 (Homo sapiens, UniProt P50281).
T8 construct: human MT1-MMP/MMP-14 (catalytic domain); purchased Calbiochem (San Diego, CA, USA)
Details: method as in PMID 33757387. The conditions noted are these: 1% DMSO; cited from earlier work.

Test [5] addresses T6, thermolysin (TLN). Put plainly: MALDI-TOF MS analysis of ES005 cleavage. In kind it is biochemical. The note with it: One μM galardin, 100 nM TLN. As to the method: MALDI-TOF MS spectra were recorded for samples containing different enzyme and substrate concentrations at various time points using an Autoflex Speed instrument (Bruker Daltonik GmbH, Leipzig, Germany) equipped with a 355-nm nitrogen laser for desorption and ionization. The ionization matrix, HCCA, was dissolved to 10 mg/mL in a standard solvent (50% MeCN, 47.5% MQ-water, and 2.5% TFA) by vigorous vortexing. Prior to the MALDI run, a main buffer (0.1 M Hepes, pH 7.5, 10 mM CaCl2) was used to dilute TLN to stock concentrations of 1000, 100 and 50 nM, ES005–500 µM, and galardin to 10 µM. All stocks solutions were kept on ice. For the 0 min incubation, 1 µL TLN and 1 µL galardin were preincubated at 37°C in 8 µL of the main buffer for 10 min before adding 1 µL of ES005. For all other time points, 1 µL of ES005 was added to tubes containing 8 µL buffer and 1 µL of TLN at different concentrations, followed by incubation at 37°C. At each timepoint (0, 1, 3, 5, 10, 20, 30, 60, 120 min), 1 µL of galardin was added to stop enzyme activity. After the final incubation, 1 µL aliquots from each timepoint were mixed with an equal volume of HCCA and spotted onto a MALDI plate. […] The resulting mass spectra were analysed using flexAnalysis software (v3.3, Bruker).

Each structure is given as a SMILES string. Read-outs that look alike come from different tables or passages of the source. Where a SMILES comes first, the peptide text is derived from it. [ ]: non-standard residue; d: D form. The star is where a group is joined. Dnp = O=[N+]([O-])c1ccc(*)c([N+](=O)[O-])c1; Mca = COc1ccc2c(CC(=O)*)cc(=O)oc2c1; Dap = NC[C@H](N)C(=O)O Bounds are passed on as bounds.

T5 sequence (P14756 198-498): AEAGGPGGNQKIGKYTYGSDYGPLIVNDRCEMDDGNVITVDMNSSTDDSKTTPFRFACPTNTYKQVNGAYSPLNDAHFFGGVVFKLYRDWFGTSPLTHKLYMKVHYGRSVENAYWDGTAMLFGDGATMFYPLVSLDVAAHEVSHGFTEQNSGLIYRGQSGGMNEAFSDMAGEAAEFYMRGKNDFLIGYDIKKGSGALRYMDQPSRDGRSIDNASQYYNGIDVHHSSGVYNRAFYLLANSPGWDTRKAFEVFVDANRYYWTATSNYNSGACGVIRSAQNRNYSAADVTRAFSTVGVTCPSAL
T4 sequence (P81177 209-509): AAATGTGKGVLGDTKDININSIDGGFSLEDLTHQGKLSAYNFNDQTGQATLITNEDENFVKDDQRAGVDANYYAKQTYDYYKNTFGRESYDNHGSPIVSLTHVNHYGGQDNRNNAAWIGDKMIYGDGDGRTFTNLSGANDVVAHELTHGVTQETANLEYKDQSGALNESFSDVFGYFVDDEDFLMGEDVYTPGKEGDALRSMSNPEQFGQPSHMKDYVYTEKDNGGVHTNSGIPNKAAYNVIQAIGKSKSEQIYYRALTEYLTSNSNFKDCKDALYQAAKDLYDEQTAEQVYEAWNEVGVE
T2 sequence (P14780 107-707 limits assumed): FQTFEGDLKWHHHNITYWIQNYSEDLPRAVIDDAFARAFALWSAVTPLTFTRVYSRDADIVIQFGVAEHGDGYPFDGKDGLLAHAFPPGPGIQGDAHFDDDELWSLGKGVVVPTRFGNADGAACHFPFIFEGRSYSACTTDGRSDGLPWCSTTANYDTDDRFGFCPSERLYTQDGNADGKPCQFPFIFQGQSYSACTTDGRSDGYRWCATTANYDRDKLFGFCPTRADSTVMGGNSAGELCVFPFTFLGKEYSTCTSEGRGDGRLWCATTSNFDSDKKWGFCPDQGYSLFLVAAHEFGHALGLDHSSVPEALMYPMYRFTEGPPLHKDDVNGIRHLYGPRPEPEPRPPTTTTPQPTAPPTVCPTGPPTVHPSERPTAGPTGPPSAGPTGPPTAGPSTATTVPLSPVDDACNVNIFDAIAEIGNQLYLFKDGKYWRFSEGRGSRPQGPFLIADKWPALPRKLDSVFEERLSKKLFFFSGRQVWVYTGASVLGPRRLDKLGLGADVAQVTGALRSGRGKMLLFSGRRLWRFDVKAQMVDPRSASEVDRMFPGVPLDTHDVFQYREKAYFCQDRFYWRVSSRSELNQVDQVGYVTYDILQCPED
T3 sequence (P14780 107-707 limits assumed): as above
T6 sequence (P00800 233-548): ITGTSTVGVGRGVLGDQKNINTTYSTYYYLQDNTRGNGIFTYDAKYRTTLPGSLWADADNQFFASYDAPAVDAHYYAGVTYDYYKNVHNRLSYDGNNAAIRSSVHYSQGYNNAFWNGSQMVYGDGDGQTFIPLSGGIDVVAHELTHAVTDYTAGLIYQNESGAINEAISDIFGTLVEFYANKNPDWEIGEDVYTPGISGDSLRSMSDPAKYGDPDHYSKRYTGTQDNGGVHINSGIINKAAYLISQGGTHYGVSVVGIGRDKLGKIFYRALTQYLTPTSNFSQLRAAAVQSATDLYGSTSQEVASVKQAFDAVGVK
T7 sequence (P14780 107-707 limits assumed): as the sequence (P14780 107-707 limits assumed) above

Turning to `CC(NC(=O)OCc1ccccc1)P(=O)(O)CC(Cc1ccccc1)C(=O)O` (stereo not shown) [H-4], the “inhibitory effect on enzymatic activity” value in test [1] (MMP-14, 100 μM compound) was “weak or no inhibition”; in [2] (MMP-9(A)) it was “weak or no inhibition”; in test [3] (MMP-9(MT)) it was “weak or no inhibition”; on aureolysin (ALN) (ALN), “weak or no inhibition”; at pseudolysin (PLN, LasB) (PLN), “weak or no inhibition”; against thermolysin (TLN) [4] (TLN) it was “weak or no inhibition”. Also, the Ki was at least 100 µM in test [1]; at least 100 µM in test [2]; at least 100 µM in test [3]; at least 100 µM on aureolysin (ALN); at least 100 µM on pseudolysin (PLN, LasB); at least 100 µM at thermolysin (TLN) [4].

For the compound `CC(=O)NC(CC(C)C)C(=O)CC(C)P(=O)(O)CC(Cc1ccccc1)C(=O)O` (stereo not shown) [H-3], the “inhibitory effect on enzymatic activity” value is recorded as “weak or no inhibition” in test [1] (MMP-14, 100 μM compound); “weak or no inhibition” in test [2] (MMP-9(A)); “weak or no inhibition” in test [3] (MMP-9(MT)); “weak or no inhibition” against aureolysin (ALN) (ALN); “weak or no inhibition” at pseudolysin (PLN, LasB) (PLN); “weak or no inhibition” on thermolysin (TLN) [4] (TLN). Besides, the “pre-incubation time after which inhibition stabilizes (slow binding)” value in test [1] (MMP-14, 100 μM compound, pre-incubation at room temperature) was 15 min. Also, the Ki in [1] (MMP-14, substrate ES001 4.0 µM, 0.1 M Hepes pH 7.5, 37°C, 1.0% DMSO, Ki from IC50 (Eqn. 3)) is at least 100 µM; in test [2] (MMP-9(A), substrate ES001 4.0 µM, 0.1 M Hepes pH 7.5, 37°C, 1.0% DMSO, Ki from IC50 (Eqn. 3)) it was at least 100 µM; in test [3] (MMP-9(MT), substrate ES001 4.0 µM, 0.1 M Hepes pH 7.5, 37°C, 1.0% DMSO, Ki from IC50 (Eqn. 3)), at least 100 µM; on aureolysin (ALN) (read-out: Ki ± s.d., ALN, substrate ES005 4.0 µM, 0.1 M Hepes pH 7.5, 37°C, 1.0% DMSO, Ki from IC50 (Eqn. 3)), at least 100 µM; at pseudolysin (PLN, LasB) (read-out: Ki ± s.d., PLN, substrate ES005 4.0 µM, 0.1 M Hepes pH 7.5, 37°C, 1.0% DMSO, Ki from IC50 (Eqn. 3)), at least 100 µM; at thermolysin (TLN) [4] (TLN, substrate ES005 4.0 µM, 0.1 M Hepes pH 7.5, 37°C, 1.0% DMSO, Ki from IC50 (Eqn. 3)) it was at least 100 µM.

As to `COc1ccc2c(CC(=O)N3CCC[C@H]3C(=O)N[C@@H](CC(C)C)C(=O)NCC(=O)N[C@@H](CC(C)C)C(=O)N[C@@H](CNc3ccc([N+](=O)[O-])cc3[N+](=O)[O-])C(=O)N[C@@H](C)C(=O)N[C@@H](CCCNC(=N)N)C(N)=O)cc(=O)oc2c1` [ES001, Mca-Pro-Leu-Gly-Leu-Dpa-Ala-Arg-NH2] (Mca-PLGL[Dap](Dnp)AR-NH2), the Km on MMP-9(A) is 4 ± 1 µM; at MMP-14, 4.9 ± 0.4 µM.

With `CCOC(=O)C(CO)CP(=O)(O)C(Cc1ccccc1)NC(=O)OCc1ccccc1` (stereo not shown) [H-5], the “inhibitory effect on enzymatic activity” value is listed as “weak or no inhibition” in test [1] (MMP-14, 100 μM compound); “weak or no inhibition” in test [2] (MMP-9(A)); “weak or no inhibition” in test [3] (MMP-9(MT)); “weak or no inhibition” on aureolysin (ALN) (ALN); “weak or no inhibition” against pseudolysin (PLN, LasB) (PLN); “weak or no inhibition” against thermolysin (TLN) [4] (TLN). Further, the Ki in test [1] was at least 100 µM; in test [2], at least 100 µM; in test [3] it was at least 100 µM; on aureolysin (ALN) it was at least 100 µM; on pseudolysin (PLN, LasB), at least 100 µM; at thermolysin (TLN) [4] it was at least 100 µM.

In the case of `CNC(=O)[C@H](Cc1c[nH]c2ccccc12)NC(=O)[C@@H](CC(=O)NO)CC(C)C` [galardin], at thermolysin (TLN) [5], the “inhibition of TLN (stopping of substrate cleavage)” value was “not sufficient to completely inhibit”.

What is called Ki is the equilibrium dissociation constant of an inhibitor or competing ligand from its target. One may read the Km as the concentration of substrate that gives half-maximal velocity.
